Patent publication US7786121B2, “Derivatives of hydroxamic acid as metalloproteinase inhibitors” (Vernalis (Oxford) Limited, priority 2003, dated 2010)

Experiments:
[1] = test system: IL2-induced peritoneal recruitment of lymphocytes; assay: IL2-induced peritoneal recruitment of lymphocytes in mice; type: in vivo; settings: C3H mice
Procedure: B. Biological Assay: IL2-Induced Peritoneal Recruitment of Lymphocytes in Mice Protocol
C3H Mice (Elevage Janvier) (8 week old, n=6) received IL2 (SPRI, 20 μg/kg, 40 ml/kg, ip) 15 min after administration of the test molecules. Twenty-four hours later, the animals were sacrificed and the lavage of the peritoneal cavity was conducted using 3×5 ml PBS-1 mM EDTA (+4° C.). After centrifugation (10 min at 3000 rpm), the pellet was resuspended in 1 ml PBS. The peritoneal cells were counted using a Beckman/Coulter counter. IL2 was solubilized in saline. The test compounds of the invention were solubilized or suspended in 0.5% carboxymethylcellulose (CMC)/0.25% Tween-20 and orally administered. […]

92 kDa gelatinase (MMP9) = 92 kDa gelatinase (MMP9) (Homo sapiens, UniProt P14780); assay: MMP9 enzyme inhibition assay, coumarin-labelled peptide substrate; type: biochemical; settings: recombinant human MMP-9, 37° C., 2 hours; read-out: MMP-9 (nM) inhibitory activity
Sequence of 92 kDa gelatinase (MMP9) (P14780 107-707 limits assumed): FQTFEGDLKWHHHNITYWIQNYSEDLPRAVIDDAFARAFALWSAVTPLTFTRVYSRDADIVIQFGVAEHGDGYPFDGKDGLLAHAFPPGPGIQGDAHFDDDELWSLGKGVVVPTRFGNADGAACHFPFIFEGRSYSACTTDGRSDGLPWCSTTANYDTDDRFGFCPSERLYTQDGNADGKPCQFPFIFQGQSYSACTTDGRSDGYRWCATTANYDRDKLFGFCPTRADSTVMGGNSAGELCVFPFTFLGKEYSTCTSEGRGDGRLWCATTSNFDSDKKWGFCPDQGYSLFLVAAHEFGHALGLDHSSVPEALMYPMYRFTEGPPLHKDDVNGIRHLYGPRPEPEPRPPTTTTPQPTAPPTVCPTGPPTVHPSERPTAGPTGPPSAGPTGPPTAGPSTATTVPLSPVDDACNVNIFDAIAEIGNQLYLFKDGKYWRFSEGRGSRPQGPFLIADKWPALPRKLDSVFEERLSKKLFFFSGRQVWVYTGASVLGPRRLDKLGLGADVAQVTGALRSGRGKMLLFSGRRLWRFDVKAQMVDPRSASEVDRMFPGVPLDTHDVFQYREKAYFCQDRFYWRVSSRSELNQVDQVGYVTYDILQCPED
Procedure: (§1) Compounds of the invention were tested for inhibitory activity against 92 kDa gelatinase (MMP9) in an assay using a coumarin-labelled peptide substrate, (7-methoxycoumarin-4-yl)acetyl-Pro-Leu-Gly-Leu-(3-[2,4-dinitrophenyl]-L-2,3-diaminopropionyl)-Ala-Arg-NH2 (McaPLGLDpaAR) (Knight et al, FEBS Lett. 1992; 263-266).
(§2) Stock solutions were made up as follows: • Assay Buffer: 100 mM Tris-HCl pH 7.6 containing 100 mM NaCl, 10 mM CaCl2, and 0.05% Brij 35 • Substrate: 0.4 mM McaPLGLDpaAR (from Bachem) (0.437 mg/ml) stock solution in 100% • DMSO (stored at −20° C.). Dilute to 8 μM in assay buffer. • Enzyme: Recombinant human 92 kDa gelatinase (MMP-9; APMA (4-aminophenylmercuric acetate)-activated if necessary) appropriately diluted in assay buffer.
(§3) Test Compounds were prepared initially as 10 mM compound solution in 100% DMSO, diluted to 1 mM in 100% DMSO, then serially diluted 3-fold in 100% DMSO across columns 1-10 of a 96-well microtitre plate Assay concentration range, 100 μM (column 1) to 5.1 nM (column 10)
(§4) The assay was performed in a total volume of 100 μl upper well in 96-well microtitre plates. Activated enzyme (20 μl) was added to the wells followed by 20 μl of assay buffer. Appropriate concentrations of test compounds dissolved in 10 μl of DMSO were then added followed by 50 μl of McaPLGLDpaAR (8 μM, prepared by dilution of DMSO stock in assay buffer). For each assay ten concentrations of test compound were examined in duplicate. Control wells lack either enzyme or test compound. The reactions were incubated at 37° C. for 2 hours. The fluorescence at 405 nm was measured immediately with an SLT Fluostar fluorometer (SLT Labinstruments GmbH, Grödig, Austria) using 320 nm excitation, without stopping the reaction.
(§5) The effect of the test compound was determined from the dose response curve generated by the 10 duplicate concentrations of inhibitor. The IC50 (the concentration of compound required to give a 50% decrease in enzyme activity) was obtained by fitting data to the equation, Y=a+((b−a)/(1+(c/X)^d)). (Y=inhibition achieved for a particular dose; X=the dose in nM; a=minimum y or zero % inhibition; b=maximum y or 100% inhibition; c=is the IC50; d=is the slope). The result was rounded to one significant figure.

collagenase (MMP1) = biological target: T1, collagenase (MMP1) (Homo sapiens, UniProt P03956); assay: MMP1 enzyme inhibition assay, coumarin-labelled peptide substrate; type: biochemical; settings: read-out: MMP-1 (nM) inhibitory activity
T1 sequence (P03956 100-469): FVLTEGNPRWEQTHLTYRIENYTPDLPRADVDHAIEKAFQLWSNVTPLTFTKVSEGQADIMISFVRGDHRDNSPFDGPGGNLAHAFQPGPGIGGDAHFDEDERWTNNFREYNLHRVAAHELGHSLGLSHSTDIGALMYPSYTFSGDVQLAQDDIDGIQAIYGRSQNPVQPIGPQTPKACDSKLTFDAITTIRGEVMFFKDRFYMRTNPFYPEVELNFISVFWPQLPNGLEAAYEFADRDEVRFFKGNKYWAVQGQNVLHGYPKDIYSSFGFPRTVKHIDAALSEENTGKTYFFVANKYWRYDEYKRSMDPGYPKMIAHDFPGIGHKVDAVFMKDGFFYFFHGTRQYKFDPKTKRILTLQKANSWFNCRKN
Procedure: as §2, §3, §4, §5
as §1, with “collagenase (MMP1)” for “92 kDa gelatinase (MMP9)”, “263-266). The protocol for this assay was as described for the MMP9 assay above.” for “263-266).”

metalloelastase (MMP12) = metalloelastase (MMP12) (Homo sapiens, UniProt P39900); assay: MMP12 enzyme inhibition assay, coumarin-labelled peptide substrate; type: biochemical; settings: read-out: MMP-12 (nM) inhibitory activity
Sequence of metalloelastase (MMP12) (P39900 106-470): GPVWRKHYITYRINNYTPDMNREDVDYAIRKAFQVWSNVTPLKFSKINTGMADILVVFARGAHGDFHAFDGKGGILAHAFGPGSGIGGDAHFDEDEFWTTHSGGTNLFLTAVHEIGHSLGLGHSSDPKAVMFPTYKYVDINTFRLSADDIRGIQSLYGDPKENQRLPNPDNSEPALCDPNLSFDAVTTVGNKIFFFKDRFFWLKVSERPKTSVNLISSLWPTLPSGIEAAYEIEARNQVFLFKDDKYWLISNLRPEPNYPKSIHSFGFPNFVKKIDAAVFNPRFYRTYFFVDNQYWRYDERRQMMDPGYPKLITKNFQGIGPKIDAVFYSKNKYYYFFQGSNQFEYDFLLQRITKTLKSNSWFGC
Procedure: as §2, §3, §4, §5
as §1, with “metalloelastase (MMP12)” for “92 kDa gelatinase (MMP9)”, “263-266). The protocol for this assay was as described for the MMP9 assay above.” for “263-266).”

MMP-2 = biological target: T2, MMP-2 (Homo sapiens, UniProt P08253); assay: MMP-2 enzyme inhibition; type: biochemical; settings: read-out: MMP-2 (nM) inhibitory activity
T2 sequence (P08253 110-660): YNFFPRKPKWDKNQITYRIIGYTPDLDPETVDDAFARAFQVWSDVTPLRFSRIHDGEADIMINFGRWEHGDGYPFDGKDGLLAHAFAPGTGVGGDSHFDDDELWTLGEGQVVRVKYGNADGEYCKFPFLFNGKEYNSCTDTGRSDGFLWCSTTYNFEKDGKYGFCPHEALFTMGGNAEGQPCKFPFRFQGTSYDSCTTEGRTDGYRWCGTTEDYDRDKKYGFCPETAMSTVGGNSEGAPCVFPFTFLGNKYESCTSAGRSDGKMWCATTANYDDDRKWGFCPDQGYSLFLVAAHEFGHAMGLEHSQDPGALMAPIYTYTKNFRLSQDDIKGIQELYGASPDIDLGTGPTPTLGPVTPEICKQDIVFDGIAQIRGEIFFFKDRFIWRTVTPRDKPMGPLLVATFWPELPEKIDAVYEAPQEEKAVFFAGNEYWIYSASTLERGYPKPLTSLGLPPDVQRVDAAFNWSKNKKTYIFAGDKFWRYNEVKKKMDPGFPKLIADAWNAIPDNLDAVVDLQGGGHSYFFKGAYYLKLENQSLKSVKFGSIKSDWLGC
Text: For instance the inhibitory activities of some of the compounds of the examples against MMP-12, MMP-9, MMP-2 and MMP-1 are set out in the following table: […]

[2] = 3 mg/kg po, 15 min before IL2 ip, cells counted 24 h later

IC50 (92 kDa gelatinase (MMP9)) [nM]	IC50 (collagenase (MMP1)) [nM]	IC50 (metalloelastase (MMP12)) [nM]	IC50 (MMP-2) [nM]	Structure (SMILES)	% Inhibition of IL2-induced peritoneal recruitment ([1]; 1 mg/kg sc (reference compound)) [%]	% Inhibition of IL2-induced peritoneal recruitment [1, 2] [%]
< 100	> 10000	< 100	< 100	CCOc1ccc(CCC[C@@H](C(=O)N2CCN(Cc3ccncc3)CC2)[C@H](O)C(=O)NO)cc1 [Example 13, 6-(4-ethoxy-phenyl)-2S-hydroxy-3R-(4-pyridin-4-ylmethyl-piperazine-1-carbonyl)-hexanoic acid hydroxyamide]	–	47
< 100	> 10000	< 100	< 100	CCOc1ccc(CCC[C@@H](C(=O)N2CCN(Cc3ccccc3)CC2)[C@H](O)C(=O)NO)cc1 [Example 14, 6-(4-ethoxy-phenyl)-2S-hydroxy-3R-(4-benzylpiperazine-1-carbonyl)-hexanoic acid hydroxyamide]	–	30
< 100	> 10000	< 100	< 100	CCOc1ccc(CCC[C@@H](C(=O)N2CCN(c3ccccc3F)CC2)[C@H](O)C(=O)NO)cc1 [Example 20, 6-(4-ethoxy-phenyl)-2S-hydroxy-3R-[4-(2-fluoro-phenyl)-piperazine-1-carbonyl]-hexanoic acid hydroxyamide]	–	57
< 100	> 10000	< 100	< 100	CCOc1ccc(CCC[C@@H](C(=O)N2CCN(c3ccccc3F)CC2)[C@H](OC)C(=O)NO)cc1 [Example 62, 6-(4-ethoxy-phenyl)-2S-methoxy-3R-[4-(2-fluoro-phenyl)-piperazine-1-carbonyl]-hexanoic acid hydroxyamide]	–	–

More lines, now with the values behind:

Structure (SMILES)	IC50 (92 kDa gelatinase (MMP9)) [nM]	IC50 (collagenase (MMP1)) [nM]	IC50 (metalloelastase (MMP12)) [nM]	IC50 (MMP-2) [nM]	% Inhibition of IL2-induced peritoneal recruitment ([1]; 1 mg/kg sc (reference compound)) [%]	% Inhibition of IL2-induced peritoneal recruitment [1, 2] [%]
C[C@@H]1C[C@H]2[C@@H]3CCC4=CC(=O)C=C[C@]4(C)[C@@]3(F)[C@@H](O)C[C@]2(C)[C@@]1(O)C(=O)CO [Dexamethazone, Dexamethasone, reference compound]	–	–	–	–	76	–
CCOc1ccc(CCC[C@@H](C(=O)N2CCN(c3ccc(OC)cc3)CC2)[C@H](O)C(=O)NO)cc1 [Example 4, 6-(4-ethoxy-phenyl)-2S-hydroxy-3R-[4-(4-methoxy-phenyl)-piperazine-1-carbonyl]-hexanoic acid hydroxyamide]	< 100	> 10000	< 100	< 100	–	34
CCOc1ccc(CCC[C@@H](C(=O)N2CCN(c3ccccn3)CC2)[C@H](O)C(=O)NO)cc1 [Example 5, 6-(4-ethoxy-phenyl)-2S-hydroxy-3R-(4-pyridin-2-yl-piperazine-1-carbonyl)-hexanoic acid hydroxyamide]	< 100	> 10000	< 100	< 100	–	50
CCOc1ccc(CCC[C@@H](C(=O)N2CCN(c3ccncc3)CC2)[C@H](O)C(=O)NO)cc1 [Example 6, 6-(4-ethoxy-phenyl)-2S-hydroxy-3R-(4-pyridin-4-yl-piperazine-1-carbonyl)-hexanoic acid hydroxyamide]	100 to 1000	> 10000	< 100	100 to 1000	–	33
CCOc1ccc(CCC[C@@H](C(=O)N2CCN(Cc3ccc4c(c3)OCO4)CC2)[C@H](O)C(=O)NO)cc1 [Example 12, 3R-(4-benzo[1,3]dioxol-5-ylmethyl-piperazine-1-carbonyl)-6-(4-ethoxy-phenyl)-2S-hydroxy-hexanoic acid hydroxyamide]	< 100	> 10000	< 100	< 100	–	–
